One compound from ChEMBL document CHEMBL5131467, “Multivalent peptide dendrimers inhibit the fusion of viral-cellular membranes and the cellular NF-κB signaling pathway” (Eur J Med Chem, 2022) can be followed below.

Calls of active or inactive are those of the source. No cut-off for these calls is given here. Where a SMILES comes first, the peptide text is derived from it. Bridges are numbered along the chain shown (N, C = ends). Roman numbers before positions name the chains, in order. Side-chain parts run from the residue outwards. The star is where a group is joined. Fmoc = O=C(OCC1c2ccccc2-c2ccccc21)*

Data set [1] concerns Mus musculus. The data set can be described thus: Antiviral activity against Kunming mouse infected with Influenza A virus (A/Puerto Rico/8/1934(H1N1)) assessed as increase in body weight at 5 mg/kg, ip measured after 15 days (reference value: 178.7%). It is filed as functional. The following applies: time 15 day.
Data set [2] relates to Mus musculus. The data set can be described thus: Antiviral activity against Kunming mouse infected with Influenza A virus (A/Puerto Rico/8/1934(H1N1)) assessed as survival rate at 5 mg/kg, ip administered twice a day with a time interval of 12 hrs for 4 days relative to control. It is filed as functional. The following applies: 96 h, time 4 day.
For data set [3], the system named is RAW264.7. The experiment in a line: Anti-inflammatory activity against mouse RAW264.7 cells assessed as reduction in LPS induced TNF alpha level at 1 ug/ml by ELISA method. It counts as functional. To be noted: dose 1 µg/ml. For orientation: An ELISA detects its analyte on a solid surface through an enzyme-linked reagent.
The subject of data set [4] is Mus musculus. The experiment in a line: Antiviral activity against Kunming mouse infected with Influenza A virus (A/Puerto Rico/8/1934(H1N1)) assessed as reduction in viral titer in lung homogenate at 1.25 mg/kg, ip administered twice a day for 3 days after 24 hrs of viral infection. To be noted: time 3.0 day. It counts as functional, organism-based.
Data set [5] deals with RAW264.7. The experiment in a line: Anti-inflammatory activity against mouse RAW264.7 cells assessed as reduction in influenza A virus induced TNF alpha level at 1 ug/ml by qRT- PCR. The following applies: dose 1.0 µg/ml. It counts as functional, cell-based.
In data set [6] the test system is Influenza A virus. The data set can be described thus: Antiviral activity against Influenza A virus (A/Puerto Rico/8/1934(H1N1)) infected in MDCK cells assessed as reduction in virus induced cytopathic effect after infection incubated for 1 hr by MTT assay. It counts as functional, organism-based.
Data set [7] concerns RAW264.7. The data set can be described thus: Anti-inflammatory activity against mouse RAW264.7 cells assessed as reduction in influenza A virus induced IL-1 beta level at 1 ug/ml by qRT- PCR. It counts as functional, cell-based. The following applies: dose 1.0 µg/ml.
The subject of data set [8] is Influenza A virus. The experiment in a line: Antiviral activity against Influenza A virus A/FM/1/47 infected in MDCK cells incubated for 1 hr by MTT assay. It counts as functional, organism-based. To be noted: A/FM/1/47, MDCK. In general terms: Formazan colour is commonly taken as a measure of viable cells.
A short description of data set [9]: Half life in Kunming mouse at 10 mg/kg, ip by HPLC analysis. It is filed as ADME, organism-based. The following applies: in vivo.
The nature of data set [10]: Tmax in Kunming mouse at 10 mg/kg, ip by HPLC analysis. It is filed as ADME, organism-based. The following applies: in vivo.
Data set [11] deals with Influenza A virus. The data set can be described thus: Antiviral activity against Influenza A virus 699(H3) clinical isolate infected in MDCK cells incubated for 1 hr by MTT assay. It is filed as functional, organism-based.
The test system of data set [12] is Influenza A virus. The experiment in a line: Antiviral activity against Influenza A virus (A/Puerto Rico/8/1934(H1N1)) infected in MDCK cells assessed as reduction in viral nucleoprotein expression level at 2 ug/ml during infection measured after 24 hrs post infection by indirect immunofluorescence assay. To be noted: dose 2.0 µg/ml. It counts as functional, organism-based.

Data set [13] deals with Influenza A virus. The data set can be described thus: Antiviral activity against Influenza A virus (A/Puerto Rico/8/1934(H1N1)) infected in MDCK cells assessed as reduction in viral nucleoprotein expression level at 2 ug/ml pretreated with compound measured after 24 hrs post infection by indirect immunofluorescence assay. It counts as functional, organism-based. The following applies: dose 2.0 µg/ml.

Data set [14] has as its system RAW264.7. The data set can be described thus: Anti-inflammatory activity against mouse RAW264.7 cells assessed as reduction in Influenza A virus (A/Puerto Rico/8/1934(H1N1)) induced TNF alpha level at 5 ug/ml by ELISA method. It is filed as functional. The following applies: dose 5 µg/ml.
Data set [15] deals with RAW264.7. The data set can be described thus: Anti-inflammatory activity against mouse RAW264.7 cells assessed as reduction in influenza A virus induced IL-6 level at 1 ug/ml by qRT- PCR. It counts as functional, cell-based. The following applies: dose 1.0 µg/ml.
Data set [16] can be described thus: AUC in Kunming mouse at 10 mg/kg, ip by HPLC analysis. Also noted: dose 10 mg/kg, route ip. To be noted: in vivo. It counts as ADME, organism-based.

As for `NCCCC[C@H](NC(=O)OCC1c2ccccc2-c2ccccc21)C(=O)N[C@@H](CCCCN)C(=O)N[C@@H](Cc1c[nH]c2ccccc12)C(=O)N[C@@H](CCCCN)C(=O)NCCCC[C@H](NC(=O)[C@H](CCCCN)NC(=O)[C@H](Cc1c[nH]c2ccccc12)NC(=O)[C@H](CCCCN)NC(=O)[C@H](CCCCN)NC(=O)OCC1c2ccccc2-c2ccccc21)C(=O)NCCCC[C@H](NC(=O)[C@H](CCCCNC(=O)[C@H](CCCCN)NC(=O)[C@H](Cc1c[nH]c2ccccc12)NC(=O)[C@H](CCCCN)NC(=O)[C@H](CCCCN)NC(=O)OCC1c2ccccc2-c2ccccc21)NC(=O)[C@H](CCCCN)NC(=O)[C@H](Cc1c[nH]c2ccccc12)NC(=O)[C@H](CCCCN)NC(=O)[C@H](CCCCN)NC(=O)OCC1c2ccccc2-c2ccccc21)C(=O)NCC(=O)O` (I: Fmoc-KKWKK([Lys-Trp-Lys-Lys-Fmoc])KG-OH / II: Fmoc-KKWKK([Lys-Trp-Lys-Lys-Fmoc]); amide I:6-II:C), the Activity in [1] is 129.4%; in data set [3] it was 250.5 pg/mL; in data set [14], 328.4 pg/mL. In addition, the survival at 5 mg/kg in [2] was 33%. Further, the outcome in data set [4], in data set [5], in data set [7], in data set [12], in [13] and in data set [15] was Active. For the same compound, the half-inhibitory concentration (IC50) (commonly the concentration that gives 50% inhibition) amounted to 11600 nM in data set [6], 170 nM in data set [8] and 120 nM in data set [11]. Besides, in [9], the half-life (usually how long it takes for the measured level to halve) was 2.88 h. Besides, the Tmax (commonly the time from dosing to the highest level) in [10] came to 1.03 h. In data set [16], the AUC – broadly, the area under the concentration-time curve, a measure of exposure – is 11900 ng·h/mL.
